What all share (assay): Qube automated patch-clamp assay, inhibition of sodium current
Common to all, as to type: cell-based

The target of test [1] is T1, human Nav1.7 channels stably expressed in HEK 293 cells (Homo sapiens, UniProt Q15858).
T1 construct: expressed in transfected cells; host or cells: HEK 293
To be noted: max concentration tested 33750 nM, read-out: NaV1.7 (nM). The method, then:
(§1) Qube™ Experimental Procedure:
(§2) Compounds were tested on human Nav1.7 and Nav1.6 channels stably expressed in HEK 293 cells. […] Cells were sealed on a planar substrate using the multihole technology. Cells expressing human Nav1.7 channels were held at −75 mV or −80 mV. Cells expressing human Nav1.6 channels were held at −65 mV. A train of 6 consecutive test pulses to −10 mV, preceded by 8 s prepulses to −115 mV, was applied at a frequency of 0.1 Hz before and after compound addition. Cells in each Qchip well were incubated in compound for 5 minutes before measuring inhibition. Peak currents were measured in control conditions and after compound addition. The following recording solutions were used (mM). External Nav1.6: 150 NaCl, 2 CaCl2), 5 KCl, 1 Mg Cl2, 10 HEPES, 12 Dextrose; external Nav1.7: 40 NaCl, 120 NMDG, 1 KCl, 0.5 MgCl2, 5 HEPES, 2.7 CaCl2); internal: 120 CsF, 30 CsCl, 10 EGTA, 5 HEPES, 5 NaF, 2 MgCl2. Compounds were prepared as 10 mM stock solutions in DMSO. 10 point compound titrations were generated using the Echo acoustic liquid handling instrument and glass coated 384 well plates. The final DMSO concentration in the assay was 0.3%. For all electrophysiology experiments, offline analysis was used to determine percent inhibition as a function of drug concentration. IC50 values were determined by fitting to the Hill equation.
(§3) The various compounds in EXAMPLES 1 through 43 and TABLE 2 exemplified above were assayed for activity and selectivity using the foregoing Qube® technique. The results are reported in TABLE 3 in a format expressing the identification of the compound with reference EXAMPLE followed by the observed potency in nM for NaV1.7, NaV1.6 and NaV1.5. NA signifies not applicable and the max concentration tested is 33750 nM.

Test [2] has as its target T2, human Nav1.6 channels stably expressed in HEK 293 cells (Homo sapiens, UniProt Q9UQD0).
T2 construct: expressed in transfected cells; host or cells: HEK 293
To be noted: holding potential −65 mV; max concentration tested 33750 nM. The method, then: as §1, §2, §3

In the next test the target is NaV1.5 (Homo sapiens, UniProt Q14524). To be noted: holding potential −80 mV; max concentration tested 33750 nM. The method, then: as §2, §3
Chain of NaV1.5 (Q14524 whole entry): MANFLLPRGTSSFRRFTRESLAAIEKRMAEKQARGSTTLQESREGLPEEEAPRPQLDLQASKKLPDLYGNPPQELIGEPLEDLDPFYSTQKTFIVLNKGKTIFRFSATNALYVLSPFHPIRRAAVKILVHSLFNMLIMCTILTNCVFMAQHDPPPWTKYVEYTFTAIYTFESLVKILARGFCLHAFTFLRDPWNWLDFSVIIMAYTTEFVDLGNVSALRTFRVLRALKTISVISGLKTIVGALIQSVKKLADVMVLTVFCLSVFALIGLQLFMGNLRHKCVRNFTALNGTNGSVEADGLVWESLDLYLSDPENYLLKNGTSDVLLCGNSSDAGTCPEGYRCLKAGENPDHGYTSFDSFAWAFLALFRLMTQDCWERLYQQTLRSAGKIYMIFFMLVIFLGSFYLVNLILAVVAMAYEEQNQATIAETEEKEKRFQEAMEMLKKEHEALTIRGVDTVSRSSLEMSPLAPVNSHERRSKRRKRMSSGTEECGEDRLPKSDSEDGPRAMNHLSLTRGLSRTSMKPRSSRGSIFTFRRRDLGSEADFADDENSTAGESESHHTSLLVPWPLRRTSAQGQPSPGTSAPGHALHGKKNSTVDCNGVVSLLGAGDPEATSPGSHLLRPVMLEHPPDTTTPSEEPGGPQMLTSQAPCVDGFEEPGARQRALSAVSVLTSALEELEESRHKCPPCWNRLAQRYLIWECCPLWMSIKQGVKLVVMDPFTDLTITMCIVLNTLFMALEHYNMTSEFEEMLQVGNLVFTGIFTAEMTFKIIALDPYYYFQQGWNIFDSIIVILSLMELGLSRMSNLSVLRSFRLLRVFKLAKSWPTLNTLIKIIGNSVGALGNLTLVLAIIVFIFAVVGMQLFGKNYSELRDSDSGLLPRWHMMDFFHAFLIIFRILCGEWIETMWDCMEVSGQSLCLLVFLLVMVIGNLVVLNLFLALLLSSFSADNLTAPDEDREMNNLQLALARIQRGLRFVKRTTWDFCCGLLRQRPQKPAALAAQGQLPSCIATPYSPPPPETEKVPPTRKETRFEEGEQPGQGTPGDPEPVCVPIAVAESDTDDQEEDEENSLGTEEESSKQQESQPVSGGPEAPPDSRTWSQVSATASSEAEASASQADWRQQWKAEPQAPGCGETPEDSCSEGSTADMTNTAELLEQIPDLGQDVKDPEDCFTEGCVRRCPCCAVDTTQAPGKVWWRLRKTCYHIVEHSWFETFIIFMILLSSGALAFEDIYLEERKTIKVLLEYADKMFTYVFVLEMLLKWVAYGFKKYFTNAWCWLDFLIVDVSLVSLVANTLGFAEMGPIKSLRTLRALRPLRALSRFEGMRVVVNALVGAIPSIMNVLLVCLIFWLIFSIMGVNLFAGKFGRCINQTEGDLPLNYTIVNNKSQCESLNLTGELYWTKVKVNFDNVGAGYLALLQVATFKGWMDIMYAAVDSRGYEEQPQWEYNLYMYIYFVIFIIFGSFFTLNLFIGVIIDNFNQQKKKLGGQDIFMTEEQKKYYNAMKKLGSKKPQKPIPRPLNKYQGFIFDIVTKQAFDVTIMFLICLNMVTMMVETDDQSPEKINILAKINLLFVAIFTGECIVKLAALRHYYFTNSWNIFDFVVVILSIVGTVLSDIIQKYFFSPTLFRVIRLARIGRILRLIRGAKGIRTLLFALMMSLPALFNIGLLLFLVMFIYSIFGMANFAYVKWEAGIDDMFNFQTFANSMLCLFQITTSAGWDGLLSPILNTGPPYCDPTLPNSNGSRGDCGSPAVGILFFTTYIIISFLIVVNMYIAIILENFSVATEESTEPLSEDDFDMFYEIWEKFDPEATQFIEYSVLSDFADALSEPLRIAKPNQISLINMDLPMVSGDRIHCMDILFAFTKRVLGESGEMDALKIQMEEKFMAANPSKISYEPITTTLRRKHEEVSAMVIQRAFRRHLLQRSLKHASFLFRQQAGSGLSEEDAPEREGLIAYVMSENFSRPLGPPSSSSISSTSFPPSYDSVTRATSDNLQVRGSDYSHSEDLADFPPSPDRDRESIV
[3] abbreviates: holding potential −80 mV, −80 mV.
The mark [4] stands for this setting: holding potential −75 mV, −75 mV.

Where two headings read alike, the source gives them in different places.

T1 sequence (Q15858 whole entry): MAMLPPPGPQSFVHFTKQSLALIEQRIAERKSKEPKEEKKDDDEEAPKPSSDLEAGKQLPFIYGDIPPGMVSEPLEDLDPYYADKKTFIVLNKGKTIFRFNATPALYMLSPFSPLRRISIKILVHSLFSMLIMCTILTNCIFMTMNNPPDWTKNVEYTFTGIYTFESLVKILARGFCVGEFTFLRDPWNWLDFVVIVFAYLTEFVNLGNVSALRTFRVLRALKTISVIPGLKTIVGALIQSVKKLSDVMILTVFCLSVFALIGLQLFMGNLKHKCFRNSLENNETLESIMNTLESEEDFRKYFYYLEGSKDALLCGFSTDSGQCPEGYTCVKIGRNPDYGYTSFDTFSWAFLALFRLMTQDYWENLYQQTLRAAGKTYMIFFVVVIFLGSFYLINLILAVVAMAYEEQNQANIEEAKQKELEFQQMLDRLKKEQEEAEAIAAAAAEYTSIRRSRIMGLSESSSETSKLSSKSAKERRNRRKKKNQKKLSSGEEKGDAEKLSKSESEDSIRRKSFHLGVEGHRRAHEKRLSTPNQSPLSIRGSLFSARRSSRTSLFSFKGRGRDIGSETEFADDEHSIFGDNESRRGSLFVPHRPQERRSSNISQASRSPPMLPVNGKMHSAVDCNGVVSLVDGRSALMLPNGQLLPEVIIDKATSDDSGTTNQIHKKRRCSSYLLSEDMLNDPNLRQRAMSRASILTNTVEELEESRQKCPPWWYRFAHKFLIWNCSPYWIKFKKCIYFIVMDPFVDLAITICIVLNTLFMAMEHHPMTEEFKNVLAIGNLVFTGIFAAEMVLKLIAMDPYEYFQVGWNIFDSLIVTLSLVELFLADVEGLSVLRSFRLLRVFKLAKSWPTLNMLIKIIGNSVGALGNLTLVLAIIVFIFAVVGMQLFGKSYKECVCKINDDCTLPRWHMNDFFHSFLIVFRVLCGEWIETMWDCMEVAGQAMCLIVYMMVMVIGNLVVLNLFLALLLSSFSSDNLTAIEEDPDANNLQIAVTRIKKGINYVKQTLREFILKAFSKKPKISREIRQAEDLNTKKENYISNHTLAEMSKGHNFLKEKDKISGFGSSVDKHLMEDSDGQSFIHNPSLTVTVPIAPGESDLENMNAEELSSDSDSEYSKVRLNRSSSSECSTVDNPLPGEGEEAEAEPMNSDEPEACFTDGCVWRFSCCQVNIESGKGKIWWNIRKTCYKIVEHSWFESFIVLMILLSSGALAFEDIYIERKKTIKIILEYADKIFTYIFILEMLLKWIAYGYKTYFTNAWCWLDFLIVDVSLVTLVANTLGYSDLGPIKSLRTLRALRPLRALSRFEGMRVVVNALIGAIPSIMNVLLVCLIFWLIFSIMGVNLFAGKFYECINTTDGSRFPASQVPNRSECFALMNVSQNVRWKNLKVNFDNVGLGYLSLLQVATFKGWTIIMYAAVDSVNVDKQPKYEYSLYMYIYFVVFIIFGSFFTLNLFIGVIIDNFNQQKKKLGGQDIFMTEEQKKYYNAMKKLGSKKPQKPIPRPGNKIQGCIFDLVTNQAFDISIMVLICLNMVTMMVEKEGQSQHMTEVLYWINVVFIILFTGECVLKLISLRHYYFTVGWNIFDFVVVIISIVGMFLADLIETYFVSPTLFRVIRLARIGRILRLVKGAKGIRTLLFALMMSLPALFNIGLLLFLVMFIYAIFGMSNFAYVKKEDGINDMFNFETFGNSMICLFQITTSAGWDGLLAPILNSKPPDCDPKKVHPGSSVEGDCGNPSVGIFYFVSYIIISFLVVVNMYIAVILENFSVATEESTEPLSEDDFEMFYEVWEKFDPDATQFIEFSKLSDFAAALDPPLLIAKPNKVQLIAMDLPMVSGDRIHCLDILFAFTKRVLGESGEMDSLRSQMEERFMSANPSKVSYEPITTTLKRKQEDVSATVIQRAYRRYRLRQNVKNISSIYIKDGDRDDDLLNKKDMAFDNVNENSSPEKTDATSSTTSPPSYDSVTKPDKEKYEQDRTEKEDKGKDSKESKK

Consider `C[C@@H](N)C(CNc1cc(F)c(S(=O)(=O)Nc2ncns2)cc1F)CC1CCCCC1CCN` (single isomer, unassigned) [Example 65], for which the IC50 in test [1] (setting [3]) is 271 nM; in test [2] it was over 33800 nM; at NaV1.5, over 33800 nM.

Regarding `C[C@@H](N)C(CNc1cc(F)c(S(=O)(=O)Nc2ncns2)cc1F)CC1CC2(CC2)CN1` (single isomer, unassigned) [Example 72], the IC50 in test [1] (setting [3]) was 229 nM; in test [2] it was over 33800 nM; at NaV1.5, over 33800 nM.

With `C[C@@H](N)[C@H](CNc1cc(F)c(S(=O)(=O)Nc2ncns2)cc1F)CC(N)CC(F)(F)F` (single isomer, unassigned) [Example 85], the IC50 in test [1] (setting [4]) is 72 nM; in test [2], over 33800 nM; at NaV1.5 it was over 33800 nM.

Consider `CCC(CN)CC(CNc1cc(F)c(S(=O)(=O)Nc2ncns2)cc1F)[C@@H](C)N` (single isomer, unassigned) [Example 93], for which the IC50 was 16 nM in test [1] (setting [4]), over 33800 nM in test [2] and over 33800 nM on NaV1.5.

On to `C[C@@H](N)C(CNc1cc(F)c(S(=O)(=O)Nc2ncns2)cc1F)C[C@@]1(C)CCC[C@@H]1CN` (single isomer, unassigned) [Example 97], for which the IC50 in test [1] (setting [4]) is 7 nM; in test [1] (setting [3]) it was 28 nM; in test [2], over 33800 nM; against NaV1.5 it was over 33800 nM.

With `CC(C)C(N)CC(CNc1cc(F)c(S(=O)(=O)Nc2ncns2)cc1Br)[C@@H](C)N` (single isomer, unassigned) [Example 109], the IC50 in test [1] (setting [4]) was found to be 3 nM; in test [2] it was 697 nM; against NaV1.5, 15600 nM.

Regarding `C[C@@H](N)C(CNc1cc(F)c(S(=O)(=O)Nc2ncns2)cc1F)CC1NC2CCC1C2` (single isomer, unassigned) [Example 111], the IC50 in test [1] (setting [3]) was 65 nM; in test [2], over 33800 nM; at NaV1.5, 13000 nM.

For `C[C@H]1NCCNCC(C)(C)C[C@H]1CNc1cc(F)c(S(=O)(=O)Nc2ncns2)cc1Cl` [Example 5, 5-chloro-2-fluoro-N-(1,2,4-thiadiazol-5-yl)-4-((((5R,6S)-5,8,8-trimethyl-1,4-diazonan-6-yl)methyl)amino)benzenesulfonamide], the IC50 is 118 nM in test [1] (setting [4]), 20700 nM in test [2] and over 33800 nM at NaV1.5.

In the case of `C[C@@H](N)[C@H](CNc1cc(F)c(S(=O)(=O)Nc2ncns2)cc1F)CC1(CCN)CCC1` [Example 10, 4-(((2S,3R)-3-amino-2-((1-(2-aminoethyl)cyclobutyl)methyl)butyl)amino)-2,5-difluoro-N-(1,2,4-thiadiazol-5-yl)benzenesulfonamide], the IC50 is 8 nM in test [1] (setting [4]), over 33800 nM in test [2] and over 33800 nM on NaV1.5.

Take `C[C@@H](N)[C@H](CNc1cc(F)c(S(=O)(=O)Nc2ccncn2)cc1Cl)CC(C)(C)CCN` [Example 12, 4-(((S)-6-amino-2-((R)-1-aminoethyl)-4,4-dimethylhexyl)amino)-5-chloro-2-fluoro-N-(pyrimidin-4-yl)benzenesulfonamide]: the IC50 in test [1] (setting [4]) was 133 nM; in test [2], over 33800 nM; at NaV1.5, over 33800 nM.

On to `C[C@@H](N)[C@H](CNc1cc(F)c(S(=O)(=O)Nc2ncns2)cc1F)CC(N)C1(C)CC1` (stereo partly drawn) [Example 18, 4-(((2S)-4-amino-2-((R)-1-aminoethyl)-4-(1-methylcyclopropyl)butyl)amino)-2,5-difluoro-N-(1,2,4-thiadiazol-5-yl)benzenesulfonamide], for which the IC50 was 149 nM in test [1] (setting [3]), over 33800 nM in test [2] and over 33800 nM on NaV1.5.

As to `CC(C)[C@@H](N)[C@H](CNc1cc(F)c(S(=O)(=O)Nc2ncns2)cc1Cl)CC(C)(C)CCN` [Example 27, 4-(((S)-6-amino-2-((R)-1-amino-2-methylpropyl)-4,4-dimethylhexyl)amino)-5-chloro-2-fluoro-N-(1,2,4-thiadiazol-5-yl)benzenesulfonamide bis(2,2,2-trifluoroacetate)], the values for the IC50 (in test [1] (setting [4]); in test [2]; against NaV1.5) were 41 nM, over 33800 nM and over 33800 nM, respectively.

For the compound `CC(C)(CCN)C[C@@H](CNc1cc(F)c(S(=O)(=O)Nc2ncns2)cc1F)[C@H](N)C1CC1` [Example 28, 4-(((S)-6-amino-2-((R)-amino(cyclopropyl)methyl)-4,4-dimethylhexyl)amino)-2,5-difluoro-N-(1,2,4-thiadiazol-5-yl)benzenesulfonamide], the IC50 in test [1] (setting [4]) is 34 nM; in test [2], over 33800 nM; at NaV1.5, over 33800 nM.

In the case of `CC(C)(CCN)C[C@@H](CNc1cc(F)c(S(=O)(=O)Nc2ncns2)cc1Cl)[C@H](N)CC1CC1` [Example 29, 4-(((S)-6-amino-2-((R)-1-amino-2-cyclopropylethyl)-4,4-dimethylhexyl)amino)-5-chloro-2-fluoro-N-(1,2,4-thiadiazol-5-yl)benzenesulfonamide bis(2,2,2-trifluoroacetate)], the IC50 in test [1] (setting [4]) was 95 nM; in test [2], over 33800 nM; on NaV1.5, over 33800 nM.

As for `C[C@@H](N)[C@H](CNc1ncc(S(=O)(=O)Nc2ncns2)cc1Br)CC(C)(C)CCN` [Example 30, 6-(((S)-6-amino-2-((R)-1-aminoethyl)-4,4-dimethylhexyl)amino)-5-bromo-N-(1,2,4-thiadiazol-5-yl)pyridine-3-sulfonamide], the IC50 in test [1] (setting [4]) is 77 nM; in test [2], over 33800 nM; on NaV1.5, over 33800 nM.

For `Cc1cc(NC[C@H](CC(C)(C)CCN)[C@@H](C)N)c(Cl)cc1S(=O)(=O)Nc1ncns1` [Example 32, 4-(((S)-6-amino-2-((R)-1-aminoethyl)-4,4-dimethylhexyl)amino)-5-chloro-2-methyl-N-(1,2,4-thiadiazol-5-yl)benzenesulfonamide], the IC50 in test [1] (setting [4]) is 19 nM; in test [2] it was over 33800 nM; on NaV1.5 it was 20700 nM.

As to `C[C@@H](N)[C@H](CNc1cc(F)c(S(=O)(=O)Nc2ncns2)cc1-c1nccs1)CC(C)(C)CCN` [Example 40, 4-(((S)-6-amino-2-((R)-1-aminoethyl)-4,4-dimethylhexyl)amino)-2-fluoro-N-(1,2,4-thiadiazol-5-yl)-5-(thiazol-2-yl)benzenesulfonamide], the IC50 in test [1] (setting [3]) was 17 nM; in test [2] it was 11600 nM; at NaV1.5, over 33800 nM.

With `C[C@@H](N)[C@H](CNc1cc(F)c(S(=O)(=O)Nc2ncns2)cc1F)CC1(CCN(C)C)CCC1` [Example 43, 4-(((2S,3R)-3-amino-2-((1-(2-(dimethylamino)ethyl)cyclobutyl)methyl)butyl)amino)-2,5-difluoro-N-(1,2,4-thiadiazol-5-yl)benzenesulfonamide], the values for the IC50 (in test [1] (setting [3]); in test [2]; on NaV1.5) were 61 nM, over 33800 nM and over 33800 nM, respectively.

As to `Cc1cc(NC[C@H](CC(C)(C)CCN)[C@@H](C)N)c(C#N)cc1S(=O)(=O)Nc1ncns1` [Example 68], the IC50 in test [1] (setting [4]) is 37 nM; in test [2], 10100 nM; on NaV1.5, over 33800 nM.

On to `COc1cc(S(=O)(=O)Nc2ncns2)c(F)cc1NCC(CC1(CN)CCC1)[C@@H](C)N` (stereo partly shown) [Example 73], for which the IC50 in test [1] (setting [4]) is 23 nM; in test [2], over 33800 nM; on NaV1.5 it was over 33800 nM.

Take `C[C@@H](N)[C@H](CNc1cc(F)c(S(=O)(=O)Nc2ncns2)cc1CO)CC(N)C1CC1` (stereo partly shown) [Example 80]: the IC50 in test [1] (setting [4]) is 71 nM; in test [2], over 33800 nM; against NaV1.5, over 33800 nM.

For the compound `CCC(N)C[C@@H](CNc1cc(F)c(S(=O)(=O)Nc2ncns2)cc1OC)[C@@H](C)N` (stereo partly shown) [Example 83], the values for the IC50 (in test [1] (setting [4]); in test [2]; on NaV1.5) were 48 nM, over 33800 nM and over 33800 nM, respectively.

With `C[C@@H](N)[C@H](CNc1ccc(S(=O)(=O)Nc2ncns2)c(F)c1F)CC1(CCN)CCC1` [Example 100], the IC50 in test [1] (setting [3]) was 52 nM; in test [2], over 33800 nM; against NaV1.5 it was over 33800 nM.

Consider `C[C@@H](N)C(CNc1cc(F)c(S(=O)(=O)Nc2ncns2)cc1Cl)CN1CCCC1` (stereo partly shown) [Example 110], for which the IC50 is 110 nM in test [1] (setting [4]), over 33800 nM in test [2] and over 33800 nM at NaV1.5.

Values taken from US12246008B2, “4-amino or 4-alkoxy-substituted aryl sulfonamide compounds with selective activity in voltage-gated sodium channels” (Merck Sharp & Dohme LLC, priority 2018, dated 2025).
